Test results: article PMC7554340, “A Novel Dual-Targeted α-Helical Peptide With Potent Antifungal Activity Against Fluconazole-Resistant Candida albicans Clinical Isolates” (Frontiers in Microbiology, 2020)
Values after ≈ are worked out from the molar mass of the structure shown. Where two headings read alike, the source gives them in different places. No end group written: not given here.

Experiments:
C. albicans cgmcc 2.2086 = test: Antifungal activity assay (broth microdilution, MIC/MFC); assay type: cell-based, Candida albicans; conditions: for MFC: 50 μl of MIC wells plated on YPD agar, 28°C, lowest concentration that completely killed fungal cells, consensus of at least three independent experiments
[1] = system: C. tropicalis cgmcc 2.1975; test: as above; assay type: cell-based, Candida tropicalis; conditions: for MFC: 50 μl of MIC wells plated on YPD agar, 28°C, lowest concentration that completely killed fungal cells, consensus of at least three independent experiments
[2] = system: C. parapsilosis cgmcc 2.3989; test: as above; assay type: cell-based, Candida parapsilosis; conditions: for MFC: 50 μl of MIC wells plated on YPD agar, 28°C, lowest concentration that completely killed fungal cells, consensus of at least three independent experiments
C. albicans 56452 [3] = test: microbe, parasite or virus in culture; conditions: Candida albicans, 56452, 48 h
C. albicans 56214 [4] = test: microbe, parasite or virus in culture; conditions: Candida albicans, 56214, 48 h
C. albicans 14936 [5] = test: microbe, parasite or virus in culture; conditions: Candida albicans, 14936, 48 h
C. albicans 17546 [6] = test: microbe, parasite or virus in culture; conditions: Candida albicans, 17546, 48 h
C. albicans 58288 [7] = test: microbe, parasite or virus in culture; conditions: Candida albicans, 58288, 48 h
C. albicans sp3902 [8] = test: microbe, parasite or virus in culture; conditions: Candida albicans, SP3902, 48 h
C. albicans sp3903 [9] = test: microbe, parasite or virus in culture; conditions: Candida albicans, SP3903, 48 h
C. albicans sp3931 [10] = test: microbe, parasite or virus in culture; conditions: Candida albicans, SP3931, 48 h
C. albicans sp3876 [11] = test: microbe, parasite or virus in culture; conditions: Candida albicans, SP3876, 48 h
C. albicans 56452 [12] = conditions: 56452, 48 h; for MIC: pH 7
C. albicans 56214 [13] = conditions: 56214, 48 h; for MIC: pH 7
C. albicans 14936 [14] = conditions: 14936, 48 h; for MIC: pH 7
C. albicans 17546 [15] = conditions: 17546, 48 h; for MIC: pH 7
C. albicans 58288 [16] = conditions: 58288, 48 h; for MIC: pH 7
C. albicans sp3902 [17] = conditions: sp3902, 48 h; for MIC: pH 7
C. albicans sp3903 [18] = conditions: sp3903, 48 h; for MIC: pH 7
C. albicans sp3931 [19] = conditions: sp3931, 48 h; for MIC: pH 7
C. albicans sp3876 [20] = conditions: sp3876, 48 h; for MIC: pH 7
IPEC-J2 cells = conditions: IPEC-J2 cells, MTT, 24 h treatment, 1-64 μM; probit regression
PMEC cells = conditions: PMEC cells, MTT, 24 h treatment, 1-64 μM; probit regression
IPEC-J2 and PMEC cells = test: Cytotoxicity MTT assay, statements for both cell lines; conditions: 24 h

## C[C@@H]1[C@H](O)[C@@H](C)/C=C/C=C/C=C/C=C/C=C/C=C/C=C/[C@H](O[C@@H]2O[C@H](C)[C@@H](O)[C@H](N)[C@@H]2O)C[C@@H]2O[C@](O)(C[C@@H](O)C[C@@H](O)[C@H](O)CC[C@@H](O)C[C@@H](O)CC(=O)O[C@H]1C)C[C@H](O)[C@H]2C(=O)O [AmB, amphotericin B]
C. albicans cgmcc 2.2086; Candida albicans, CGMCC2, 48 h
  MFC: 1 µM (≈ 0.924 µg/mL)
C. albicans cgmcc 2.2086; Candida albicans, CGMCC2, broth microdilution, RPMI-MOPS pH 7.0, 28°C, 48 h, lowest concentration inhibiting 99% of growth (A492)
  MIC: 1 µM (≈ 0.924 µg/mL)
[1]; Candida tropicalis, CGMCC2, 48 h
  MFC: 2 µM (≈ 1.85 µg/mL)
[1]; Candida tropicalis, CGMCC2, broth microdilution, RPMI-MOPS pH 7.0, 28°C, 48 h, lowest concentration inhibiting 99% of growth (A492)
  MIC: 1 µM (≈ 0.924 µg/mL)
[2]; Lodderomyces parapsilosis, CGMCC2, 48 h
  MFC: 2 µM (≈ 1.85 µg/mL)
[2]; Lodderomyces parapsilosis, CGMCC2, broth microdilution, RPMI-MOPS pH 7.0, 28°C, 48 h, lowest concentration inhibiting 99% of growth (A492)
  MIC: 2 µM (≈ 1.85 µg/mL)
C. albicans 56452 [3]
  MFC: 2 µM (≈ 1.85 µg/mL)
C. albicans 56452 [3]; pH 7
  MIC: 1 µM (≈ 0.924 µg/mL)
C. albicans 56214 [4]
  MFC: 2 µM (≈ 1.85 µg/mL)
C. albicans 56214 [4]; pH 7
  MIC: 1 µM (≈ 0.924 µg/mL)
C. albicans 14936 [5]
  MFC: 0.5 µM (≈ 0.462 µg/mL)
C. albicans 14936 [5]; pH 7
  MIC: 0.25 µM (≈ 0.231 µg/mL)
C. albicans 17546 [6]
  MFC: 1 µM (≈ 0.924 µg/mL)
C. albicans 17546 [6]; pH 7
  MIC: 0.25 µM (≈ 0.231 µg/mL)
C. albicans 58288 [7]
  MFC: 1 µM (≈ 0.924 µg/mL)
C. albicans 58288 [7]; pH 7
  MIC: 0.5 µM (≈ 0.462 µg/mL)
C. albicans sp3902 [8]
  MFC: 1 µM (≈ 0.924 µg/mL)
C. albicans sp3902 [8]; pH 7
  MIC: 0.25 µM (≈ 0.231 µg/mL)
C. albicans sp3903 [9]
  MFC: 1 µM (≈ 0.924 µg/mL)
C. albicans sp3903 [9]; pH 7
  MIC: 0.13 µM (≈ 0.12 µg/mL)
C. albicans sp3931 [10]
  MFC: 1 µM (≈ 0.924 µg/mL)
C. albicans sp3931 [10]; pH 7
  MIC: 0.25 µM (≈ 0.231 µg/mL)
C. albicans sp3876 [11]
  MFC: 0.5 µM (≈ 0.462 µg/mL)
C. albicans sp3876 [11]; pH 7
  MIC: 0.25 µM (≈ 0.231 µg/mL)

## RIGRWLLWRGIRRIGRWL-NH2 [RW3]
C. albicans cgmcc 2.2086; 48 h
  MFC: 4 µM
C. albicans cgmcc 2.2086; cgmcc 2.2086, 48 h, pH 7
  MIC: 4 µM
[1]; 48 h
  MFC: 2 µM
[1]; cgmcc 2.1975, 48 h, pH 7
  MIC: 2 µM
[2]; 48 h
  MFC: 4 µM
[2]; cgmcc 2.3989, 48 h, pH 7
  MIC: 4 µM
C. albicans 56452 [12]
  MFC: 4 µM
  MIC: 4 µM
C. albicans 56214 [13]
  MFC: 2 µM
  MIC: 2 µM
C. albicans 14936 [14]
  MFC: 4 µM
  MIC: 4 µM
C. albicans 17546 [15]
  MFC: 8 µM
  MIC: 8 µM
C. albicans 58288 [16]
  MFC: 8 µM
  MIC: 4 µM
C. albicans sp3902 [17]
  MFC: 2 µM
  MIC: 2 µM
C. albicans sp3903 [18]
  MFC: 8 µM
  MIC: 2 µM
C. albicans sp3931 [19]
  MFC: 4 µM
  MIC: 4 µM
C. albicans sp3876 [20]
  MFC: 4 µM
  MIC: 4 µM
Human erythrocytes
  hemolytic activity (in words): strong hemolytic activities
Human erythrocytes; red cells of human, 1 h
  HC10: 3.81 µM
IPEC-J2 cells
  IC50: 14.8 µM
PMEC cells
  IC50: 22.3 µM
IPEC-J2 and PMEC cells
  concentration at which statistically significant cytotoxic effects started: 8 µM

## KIGKVLLVKGIK-NH2 [KV2]
C. albicans cgmcc 2.2086; 48 h
  MFC: >64 µM
C. albicans cgmcc 2.2086; cgmcc 2.2086, 48 h, pH 7
  MIC: >64 µM
[1]; 48 h
  MFC: >64 µM
[1]; cgmcc 2.1975, 48 h, pH 7
  MIC: >64 µM
[2]; 48 h
  MFC: >64 µM
[2]; cgmcc 2.3989, 48 h, pH 7
  MIC: >64 µM
C. albicans 56452 [12]
  MFC: >64 µM
  MIC: >64 µM
C. albicans 56214 [13]
  MFC: >64 µM
  MIC: >64 µM
C. albicans 14936 [14]
  MFC: >64 µM
  MIC: >64 µM
C. albicans 17546 [15]
  MFC: >64 µM
  MIC: >64 µM
C. albicans 58288 [16]
  MFC: >64 µM
  MIC: >64 µM
C. albicans sp3902 [17]
  MFC: >64 µM
  MIC: >64 µM
C. albicans sp3903 [18]
  MFC: >64 µM
  MIC: >64 µM
C. albicans sp3931 [19]
  MFC: >64 µM
  MIC: >64 µM
C. albicans sp3876 [20]
  MFC: >64 µM
  MIC: >64 µM
